The target of one data set is WNV NS2B-NS3 proteinase. The experiment in a line: WNV NS2B-NS3 proteinase activity assay (cross-reactivity). Particulars: pyroglutamic acid-Arg-Thr-Lys-Arg-7-amino-4-methylcoumarin substrate. Type of data set: biochemical, West Nile virus (strain NY99). An excerpt: (§1) Reagents were purchased from Sigma unless indicated otherwise. The FRET substrate Ac-DE-D(Edans)-EE-Abu-ψ-[COO]-AS-K(Dabsyl)-NH2, purified recombinant wild-type NS3/4A from HCV genotype 1b, strain HC-J4, and the mutants with the V36M, R155K, A156T, D168A and V170A resistance mutations were from AnaSpec (Fremont, CA). The NS3/4A construct represented the individual NS3 proteinase domain N-terminally fused with an NS4A co-factor and tagged with a 6xHis tag. NS3/4A was in active form and the pre-activation by pep-4A or pep4AK was not necessary. Pyroglutamic acid-Arg-Thr-Lys-Arg-7-amino-4-methylcoumarin was from Peptides International (Louisville, KY). West Nile virus NS2B-NS3 proteinase (strain NY99) was expressed, purified and refolded to restore its functional activity as described earlier. The pET15b-Den2-CF40-Gly-NS3pro 185 plasmid encoding the Dengue virus type 2 NS2B-NS3 protease was a kind gift of Dr. Subhash Vasudevan (Program in Emerging Infectious Diseases, DUKE-NUS Graduate Medical School, Singapore). DV NS2B-NS3 proteinase was expressed purified and refolded to restore its functional activity as described previously, [70]. The expression of the soluble C-terminally truncated human furin construct in Sf9 insect cells (an ovarian cell line from fall armyworm Spodoptera frugiperda; Invitrogen, Carlsbad, CA) infected with the recombinant baculovirus and purification of soluble furin from the medium were described earlier. Original human hepatocarcinoma Huh7 cells were obtained from ATCC (Manassas, VA).
(§2) The activity of furin and both WNV and DV2 NS2B-NS3 proteinases (10 nM each) was measured in triplicate in 0.2 ml 20 mM Tris-HCl buffer, pH 8.0, containing 20% glycerol and 0.005% Brij 35 (for furin – 100 mM HEPES, pH 7.5, containing 1 mM CaCl2, 1 mM β-mercaptoethanol and 0.005% Brij 35) and pyroglutamic acid-Arg-Thr-Lys-Arg-7-amino-4-methylcoumarin (10 µM) as a substrate (λex = 360 nm; λem = 465 nm) as described earlier.
(§3) To measure the inhibitory potency of the compounds, their increasing concentrations were pre-incubated with the individual proteinases in the corresponding buffer for 30 min at ambient temperature. At least, 7–9 different concentrations were used for each inhibitor. The residual activity of the enzymes was then measured as above. The IC50 values of the inhibitory compounds were calculated by determining the concentrations of the compounds needed to inhibit 50% of the enzyme activity against the peptide substrate. GraphPad Prism was used as fitting software.

In another data set the target is T1, DV2 NS2B-NS3 proteinase (Dengue virus type 2, UniProt P29990).
T1 construct: The pET15b-Den2-CF40-Gly-NS3pro 185 plasmid encoding the Dengue virus type 2 NS2B-NS3 protease; made in house
The experiment in a line: DV2 NS2B-NS3 proteinase activity assay (cross-reactivity). In kind it is biochemical. The conditions noted are these: pyroglutamic acid-Arg-Thr-Lys-Arg-7-amino-4-methylcoumarin substrate.
From the text: as §1, §2, §3

The next data set has as its target T2, furin (Homo sapiens, UniProt P09958).
T2 construct: soluble C-terminally truncated human furin construct in Sf9 insect cells; made in house; host or cells: Sf9 insect cells (baculovirus)
The experiment in a line: Furin activity assay (cross-reactivity). Type of data set: biochemical. Particulars: pyroglutamic acid-Arg-Thr-Lys-Arg-7-amino-4-methylcoumarin substrate.
From the text: as §1, §2, §3

A further data set concerns Huh7 ET cells. The conditions noted are these: for CC50: read-out: HCV replicon CC50, concentration reducing cell viability by 50%, 72 h; for CC90: read-out: HCV replicon CC90, concentration reducing cell viability by 90%, 72 h. The procedure: Both cell toxicity and HCV replicon inhibition assays were performed in triplicate in wells of a 96-well flat-bottom, white-wall plates (E&K Scientific, Santa Clara, CA) by the Drug Development Division, Southern Research Institute (SRI; Birmingham, AL). […] Prior to the assays, sub-confluent Huh7 ET cultures were seeded in wells of a 96-well plate. Following a 24 h incubation at 37°C in a 5% CO2 incubator, increasing concentrations of the compounds were added to the wells and incubation was continued for an additional 72 h. […] Human interferon α2b was used as a control. The cellular replicon-derived luciferase activity was measured using the Steady-Glo Luciferase Assay System (Promega, Fitchburg, WI) and a fluorescence spectrophotometer. Cytotoxicity of compounds was measured using the CytoTox-ONE Homogeneous Membrane Integrity Assay (Promega). The IC50 and IC90 values of the compounds (compound concentrations inhibiting the replicon by 50% and 90%, respectively) as well as CC50 and CC90 (compound concentration decreasing cell viability by 50% and 90%, respectively) were calculated using GraphPad Prism.
(In general: Replicon systems follow genome replication, usually without infectious particles.)

Another data set deals with NS3/4A D168A. In kind it is biochemical, HCV genotype 1b, strain HC-J4. Particulars: fold change in IC50 for the mutant compared to WT.
From the text: as §1, with “NS3/4A was in active form and the pre-activation by pep-4A or pep4AK was not necessary.” left out
(§4) The NS3/4A activity assay was performed at 37°C in triplicate in wells of a 96-well plate in 0.2 ml 50 mM HEPES, pH 7.5, containing 100 mM NaCl, 10 mM DTT, 20% glycerol, the Ac-DE-D(Edans)-EE-Abu-ψ-[COO]-AS-K(Dabsyl)-NH2 substrate (10 µM) and the NS3/4A enzyme (10 nM). Reaction velocity was monitored continuously at λex = 355 nm and λem = 500 nm for 10 min using a Spectramax Gemini EM fluorescence spectrophotometer (Molecular Devices, Sunnyvale, CA) and the initial rate of reaction v was recorded for each reaction. […] Compound stock solutions (10 mM) were made in 100% DMSO. Stocks were then diluted using the assay buffer. As a result, the final DMSO concentration was always below 1% in the assay reactions.
as §3

Another data set relates to NS3/4A V170A. Nature of the data set: NS3/4A activity assay, V170A mutant. In kind it is biochemical, HCV genotype 1b, strain HC-J4. Particulars: for NS3/4A V170A FC: fold change in IC50 for the mutant compared to WT; for pIC50: recombinant V170A mutant, FRET peptide substrate.
From the text: as §1, with “NS3/4A was in active form and the pre-activation by pep-4A or pep4AK was not necessary.” left out
as §4, §3

Consider eight compounds from PMC3388044, “Probing of Exosites Leads to Novel Inhibitor Scaffolds of HCV NS3/4A Proteinase” (PLoS ONE, 2012).

pIC50: −log10 of the molar value. Where only a bound is given, the exact number is not on record here.

T1 sequence (P29990 1476-1653): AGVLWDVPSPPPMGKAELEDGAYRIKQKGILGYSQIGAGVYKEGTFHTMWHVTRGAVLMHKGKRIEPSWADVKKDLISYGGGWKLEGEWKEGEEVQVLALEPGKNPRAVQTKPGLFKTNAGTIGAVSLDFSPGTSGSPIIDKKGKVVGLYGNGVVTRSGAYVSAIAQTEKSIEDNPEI
T2 sequence (P09958 108-715 limits assumed): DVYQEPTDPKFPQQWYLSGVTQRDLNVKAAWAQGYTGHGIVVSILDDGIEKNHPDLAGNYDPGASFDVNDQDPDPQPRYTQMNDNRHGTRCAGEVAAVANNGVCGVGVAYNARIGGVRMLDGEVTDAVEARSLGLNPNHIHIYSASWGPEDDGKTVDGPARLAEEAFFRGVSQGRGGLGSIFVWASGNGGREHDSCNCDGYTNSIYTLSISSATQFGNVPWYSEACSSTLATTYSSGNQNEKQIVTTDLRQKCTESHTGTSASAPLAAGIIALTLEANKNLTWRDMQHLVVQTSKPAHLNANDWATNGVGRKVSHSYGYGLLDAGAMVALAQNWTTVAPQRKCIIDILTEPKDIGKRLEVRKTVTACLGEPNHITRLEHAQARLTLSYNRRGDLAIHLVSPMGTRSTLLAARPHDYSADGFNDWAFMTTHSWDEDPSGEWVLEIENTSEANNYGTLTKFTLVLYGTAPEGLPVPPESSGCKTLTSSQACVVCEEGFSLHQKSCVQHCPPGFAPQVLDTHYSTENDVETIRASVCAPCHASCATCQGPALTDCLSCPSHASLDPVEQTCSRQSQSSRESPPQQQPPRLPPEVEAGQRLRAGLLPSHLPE

Consider `O=C(Nc1ccccc1)c1cc(S(=O)(=O)Nc2nc3ncccc3[nH]2)c(SSc2cc(Cl)c(C(=O)Nc3ccccc3)cc2S(=O)(=O)Nc2nc3ncccc3[nH]2)cc1Cl` [Compound 1], for which the pIC50 (in general, −log10 of the IC50, conventionally taken in molar units) at WNV NS2B-NS3 proteinase was 4.66; against DV2 NS2B-NS3 proteinase it was 4.71; on furin, less than 4.00; in the data set on NS3/4A V170A it was 6.40. Further, the CC50 in the data set on Huh7 ET cells was greater than 100 µM. In addition, in the data set with Huh7 ET cells, the CC90 is greater than 100 µM. Besides, the “NS3/4A D168A FC” value with NS3/4A D168A is reported as 1.4. Moreover, the “NS3/4A V170A FC” value with NS3/4A V170A amounted to 2.2.

On to `Clc1ccc(OCc2nn3c(CCc4nnc5sc(COc6ccc(Cl)cc6)nn45)nnc3s2)cc1` [Compound 2], for which the pIC50 is less than 4.00 at WNV NS2B-NS3 proteinase, less than 4.00 on DV2 NS2B-NS3 proteinase, less than 4.00 at furin and 5.74 with NS3/4A V170A. Further, in the data set on Huh7 ET cells, the CC50 stood at 9.99 µM. The CC90 in the data set on Huh7 ET cells came to 22.1 µM. In addition, the “NS3/4A D168A FC” value in the data set with NS3/4A D168A is recorded as 14.8. Also, the “NS3/4A V170A FC” value with NS3/4A V170A is 6.

As for `Cc1n[nH]c(=S)n1Nc1nc(SCc2ccccc2)nc2n[nH]c(Cc3nn[nH]n3)c12` [Compound 3], the pIC50 against WNV NS2B-NS3 proteinase is 4.74; against DV2 NS2B-NS3 proteinase, 4.46; at furin, less than 4.00; in the data set on NS3/4A V170A, 5.71. Besides, the CC50 in the data set with Huh7 ET cells is greater than 100 µM. The CC90 with Huh7 ET cells was greater than 100 µM. The “NS3/4A D168A FC” value in the data set on NS3/4A D168A amounted to 23.3. In addition, in the data set with NS3/4A V170A, the “NS3/4A V170A FC” value was 5.5.

In the case of `Oc1ccccc1-c1nnc2sc3c(Cl)c4nn5c(-c6ccccc6O)nnc5sc4c(Cl)c3nn12` [Compound 4], the pIC50 was 5.43 against WNV NS2B-NS3 proteinase, 4.84 at DV2 NS2B-NS3 proteinase, 4.89 against furin and 6.10 in the data set on NS3/4A V170A. Moreover, in the data set with Huh7 ET cells, the CC50 was greater than 100 µM. Besides, the CC90 with Huh7 ET cells was greater than 100 µM. In addition, in the data set on NS3/4A D168A, the “NS3/4A D168A FC” value came out at 9.3. For the same compound, in the data set with NS3/4A V170A, the “NS3/4A V170A FC” value was 2.2.

Regarding `Clc1ccc(Nc2nc(SCc3ccccc3)nc3n[nH]c(Cc4nc5ccccc5s4)c23)cc1` [Compound 5], the pIC50 is 4.62 against WNV NS2B-NS3 proteinase, 4.31 against DV2 NS2B-NS3 proteinase, less than 4.00 on furin and 5.20 in the data set with NS3/4A V170A. Moreover, in the data set with Huh7 ET cells, the CC50 was greater than 100 µM. The CC90 in the data set on Huh7 ET cells was greater than 100 µM. In addition, the “NS3/4A D168A FC” value in the data set on NS3/4A D168A worked out at 33.4. In the data set with NS3/4A V170A, the “NS3/4A V170A FC” value is 16.6.

Consider `S=c1[nH]nc(Nc2nc(SCc3ccccc3)nc3n[nH]c(Cc4nn[nH]n4)c23)s1` [Compound 6], for which the pIC50 was 4.89 against WNV NS2B-NS3 proteinase, 4.69 at DV2 NS2B-NS3 proteinase, 4.18 against furin and 6.03 in the data set on NS3/4A V170A. In addition, the CC50 in the data set on Huh7 ET cells is greater than 100 µM. In addition, the CC90 with Huh7 ET cells was greater than 100 µM. Further, the “NS3/4A D168A FC” value in the data set on NS3/4A D168A amounted to 1.3. Further, in the data set with NS3/4A V170A, the “NS3/4A V170A FC” value was found to be 0.98.

Take `S=c1[nH]n2c(COc3cc(Cl)c(OCc4nnc5sc(=S)[nH]n45)cc3Cl)nnc2s1` [Compound 7]: the pIC50 against WNV NS2B-NS3 proteinase is 4.41; against DV2 NS2B-NS3 proteinase, less than 4.00; against furin, less than 4.00; with NS3/4A V170A, 5.82. For the same compound, in the data set on Huh7 ET cells, the CC50 stood at 86.8 µM. Moreover, in the data set with Huh7 ET cells, the CC90 worked out at 96.3 µM. The “NS3/4A D168A FC” value with NS3/4A D168A came out at 1. In the data set with NS3/4A V170A, the “NS3/4A V170A FC” value was 1.2.

Take `COc1cc(C2C(C(=O)Nc3ccc(Cl)c(Cl)c3)=C(C)NC(C)=C2C(=O)Nc2ccc(Cl)c(Cl)c2)ccc1O` [Compound 8]: the pIC50 on WNV NS2B-NS3 proteinase was 4.66; at DV2 NS2B-NS3 proteinase it was 4.41; against furin, 4.57; with NS3/4A V170A, 5.53. In the data set with Huh7 ET cells, the CC50 worked out at 14.2 µM. For the same compound, in the data set on Huh7 ET cells, the CC90 was 26.6 µM. Besides, the “NS3/4A D168A FC” value in the data set with NS3/4A D168A is reported as 1.6. Further, the “NS3/4A V170A FC” value in the data set on NS3/4A V170A amounted to 1.5.
